How the values were obtained:
[1] = molecular target: EGFR L858R/T790M (Homo sapiens (Human), UniProt P00533, L858R/T790M); assay: TR-FRET assay for ERBB kinases; assay type: biochemical; details: geometric mean if measured more than once
Outline: (§1)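 Phosphotyrosine on fluorescein poly-GluTyr was detected by Tb-pY20 antibody after EDTA quench, reading emission at 520 and 490 nm. The kinase was exposed to compound for 10 min before an ATP-containing substrate mix (3 mM ATP as added) was introduced. Turnover lasted 10 min at room temperature.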

[2] = molecular target: EGFR L858R/T790M/C797S (Homo sapiens (Human), UniProt P00533, C797S/L858R/T790M); assay: TR-FRET assay for ERBB kinases; assay type: biochemical; details: geometric mean if measured more than once
Outline: as §1

[3] = molecular target: EGFR WT (Homo sapiens (Human), UniProt P00533); assay: TR-FRET assay for ERBB kinases; assay type: biochemical; details: geometric mean if measured more than once
Outline: as §1

[4] = molecular target: EGFR L858R/T790M/C797S triple mutant (H520*) (Homo sapiens (Human), UniProt P00533, C797S/L858R/T790M); assay: EGFR protein degradation assay (Western blot); assay type: cell-based; details: 72 hours, 300 nM to 10 nM
Outline: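 EGFR loss in the triple-mutant line measured by immunoblot: clarified lysates normalised by BCA, run on 4-12% Bis-Tris gels, blotted to PVDF, probed with HRP anti-rabbit secondary. Before lysis, cells were dosed from 1, 0.3, 0.1, 0.03 and 0.01 mM DMSO stocks (not final concentrations) after overnight culture at 37° C.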

[5] = molecular target: EGFR Δ19/746/750 (Homo sapiens (Human), UniProt P00533, DEL746-750); assay: TR-FRET assay for ERBB kinases; assay type: biochemical; details: geometric mean if measured more than once
Outline: (§2)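 Compounds pre-incubated 10 min with kinase in HEPES pH 7.5 buffer (MgCl2, DTT, Pluronic), then reaction started with substrate mix (3 mM ATP, 30 µM fluorescein-poly-GluTyr, stock levels) for 10 min at room temperature. EDTA-quenched, detected by Tb-pY20 antibody TR-FRET (520/490 nm emission).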

[6] = molecular target: EGFR Δ19/746/750 T790M (Homo sapiens (Human), UniProt P00533, DEL746-750/T790M); assay: TR-FRET assay for ERBB kinases; assay type: biochemical; details: geometric mean if measured more than once
Outline: as §2

[7] = molecular target: EGFR-wt (MDA-MB-231 or MCF7 or A549 or OVCAR8) (Homo sapiens (Human), UniProt P00533); assay: EGFR protein degradation assay (Western blot); assay type: cell-based; details: 72 hours, 300 nM to 10 nM
Outline: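 Cells carrying the relevant EGFR form were plated at 300,000 per well in 6-well plates and left overnight to attach. For harvest, cells were rinsed once in ice-cold PBS and lysed in 400 μl lysis buffer containing protease inhibitors. Lysates were cleared at 10 000 rpm for 10 minutes and their protein content measured by BCA. Then 10 μg per sample was separated by SDS/PAGE at 165V for 2 hours, and EGFR was detected by ECL on a Chemidoc.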

Sequence of EGFR Δ19/746/750 T790M (P00533 other isoform, or with tags, fused parts or gaps T790M/del 1-694/del 746-750 limits assumed): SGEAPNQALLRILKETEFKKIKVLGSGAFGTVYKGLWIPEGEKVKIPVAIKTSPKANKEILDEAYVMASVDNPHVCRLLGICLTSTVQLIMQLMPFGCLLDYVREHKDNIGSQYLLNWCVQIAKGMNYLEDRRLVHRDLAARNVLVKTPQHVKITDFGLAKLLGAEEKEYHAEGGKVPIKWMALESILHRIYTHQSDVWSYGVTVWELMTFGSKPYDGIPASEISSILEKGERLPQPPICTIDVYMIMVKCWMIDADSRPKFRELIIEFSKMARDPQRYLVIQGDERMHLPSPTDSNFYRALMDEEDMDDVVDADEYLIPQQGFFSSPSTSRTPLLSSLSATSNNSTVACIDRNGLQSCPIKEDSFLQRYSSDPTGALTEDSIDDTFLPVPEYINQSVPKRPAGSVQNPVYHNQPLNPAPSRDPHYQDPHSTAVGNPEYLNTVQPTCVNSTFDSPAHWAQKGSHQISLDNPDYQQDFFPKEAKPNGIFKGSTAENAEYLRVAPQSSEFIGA
Sequence of EGFR Δ19/746/750 (P00533 other isoform, or with tags, fused parts or gaps del 1-694/del 746-750 limits assumed): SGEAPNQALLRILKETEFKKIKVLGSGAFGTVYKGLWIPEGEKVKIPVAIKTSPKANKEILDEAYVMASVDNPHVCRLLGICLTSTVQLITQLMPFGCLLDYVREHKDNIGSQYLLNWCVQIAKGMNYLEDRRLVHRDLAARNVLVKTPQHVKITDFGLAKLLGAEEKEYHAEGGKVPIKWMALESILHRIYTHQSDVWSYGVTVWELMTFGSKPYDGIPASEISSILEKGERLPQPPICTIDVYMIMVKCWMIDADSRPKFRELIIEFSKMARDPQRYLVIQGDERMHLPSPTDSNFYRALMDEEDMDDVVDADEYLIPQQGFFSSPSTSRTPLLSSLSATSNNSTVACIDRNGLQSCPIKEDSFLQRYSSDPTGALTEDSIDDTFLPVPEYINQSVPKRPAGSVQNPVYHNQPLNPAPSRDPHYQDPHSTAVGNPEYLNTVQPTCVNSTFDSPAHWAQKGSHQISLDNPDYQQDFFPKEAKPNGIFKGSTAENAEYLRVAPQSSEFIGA
Sequence of EGFR L858R/T790M (P00533 25-1210 T790M/L858R): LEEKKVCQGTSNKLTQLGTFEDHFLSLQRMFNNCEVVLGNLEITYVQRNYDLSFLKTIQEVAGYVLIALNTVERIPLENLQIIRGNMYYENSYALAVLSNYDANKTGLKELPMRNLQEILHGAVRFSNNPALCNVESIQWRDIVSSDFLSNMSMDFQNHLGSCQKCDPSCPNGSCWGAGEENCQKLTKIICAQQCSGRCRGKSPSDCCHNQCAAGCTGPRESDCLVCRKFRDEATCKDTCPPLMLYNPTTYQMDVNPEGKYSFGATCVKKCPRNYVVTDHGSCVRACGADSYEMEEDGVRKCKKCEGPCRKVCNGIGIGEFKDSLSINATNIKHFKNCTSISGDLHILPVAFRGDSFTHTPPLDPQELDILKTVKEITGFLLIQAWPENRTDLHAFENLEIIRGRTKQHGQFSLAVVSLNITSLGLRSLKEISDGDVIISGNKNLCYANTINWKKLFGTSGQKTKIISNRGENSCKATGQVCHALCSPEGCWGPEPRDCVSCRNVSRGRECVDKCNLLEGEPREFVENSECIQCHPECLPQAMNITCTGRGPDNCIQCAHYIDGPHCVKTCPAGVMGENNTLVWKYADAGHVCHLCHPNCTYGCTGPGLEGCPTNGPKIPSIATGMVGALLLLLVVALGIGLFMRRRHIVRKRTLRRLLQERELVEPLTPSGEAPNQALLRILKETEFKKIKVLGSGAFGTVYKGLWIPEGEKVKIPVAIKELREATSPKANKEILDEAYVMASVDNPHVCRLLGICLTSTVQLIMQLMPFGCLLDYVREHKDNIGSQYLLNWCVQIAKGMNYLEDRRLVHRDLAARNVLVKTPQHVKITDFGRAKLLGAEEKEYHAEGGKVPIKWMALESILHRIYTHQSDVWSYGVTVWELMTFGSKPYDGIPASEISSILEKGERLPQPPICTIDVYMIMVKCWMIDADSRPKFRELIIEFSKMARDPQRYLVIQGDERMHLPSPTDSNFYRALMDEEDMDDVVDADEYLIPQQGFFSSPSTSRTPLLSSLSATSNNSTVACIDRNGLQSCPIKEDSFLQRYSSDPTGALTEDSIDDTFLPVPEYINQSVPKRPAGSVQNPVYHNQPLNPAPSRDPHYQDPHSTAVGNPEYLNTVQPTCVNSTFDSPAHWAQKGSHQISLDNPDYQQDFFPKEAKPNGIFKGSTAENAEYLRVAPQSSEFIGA
Sequence of EGFR WT (P00533 25-1210): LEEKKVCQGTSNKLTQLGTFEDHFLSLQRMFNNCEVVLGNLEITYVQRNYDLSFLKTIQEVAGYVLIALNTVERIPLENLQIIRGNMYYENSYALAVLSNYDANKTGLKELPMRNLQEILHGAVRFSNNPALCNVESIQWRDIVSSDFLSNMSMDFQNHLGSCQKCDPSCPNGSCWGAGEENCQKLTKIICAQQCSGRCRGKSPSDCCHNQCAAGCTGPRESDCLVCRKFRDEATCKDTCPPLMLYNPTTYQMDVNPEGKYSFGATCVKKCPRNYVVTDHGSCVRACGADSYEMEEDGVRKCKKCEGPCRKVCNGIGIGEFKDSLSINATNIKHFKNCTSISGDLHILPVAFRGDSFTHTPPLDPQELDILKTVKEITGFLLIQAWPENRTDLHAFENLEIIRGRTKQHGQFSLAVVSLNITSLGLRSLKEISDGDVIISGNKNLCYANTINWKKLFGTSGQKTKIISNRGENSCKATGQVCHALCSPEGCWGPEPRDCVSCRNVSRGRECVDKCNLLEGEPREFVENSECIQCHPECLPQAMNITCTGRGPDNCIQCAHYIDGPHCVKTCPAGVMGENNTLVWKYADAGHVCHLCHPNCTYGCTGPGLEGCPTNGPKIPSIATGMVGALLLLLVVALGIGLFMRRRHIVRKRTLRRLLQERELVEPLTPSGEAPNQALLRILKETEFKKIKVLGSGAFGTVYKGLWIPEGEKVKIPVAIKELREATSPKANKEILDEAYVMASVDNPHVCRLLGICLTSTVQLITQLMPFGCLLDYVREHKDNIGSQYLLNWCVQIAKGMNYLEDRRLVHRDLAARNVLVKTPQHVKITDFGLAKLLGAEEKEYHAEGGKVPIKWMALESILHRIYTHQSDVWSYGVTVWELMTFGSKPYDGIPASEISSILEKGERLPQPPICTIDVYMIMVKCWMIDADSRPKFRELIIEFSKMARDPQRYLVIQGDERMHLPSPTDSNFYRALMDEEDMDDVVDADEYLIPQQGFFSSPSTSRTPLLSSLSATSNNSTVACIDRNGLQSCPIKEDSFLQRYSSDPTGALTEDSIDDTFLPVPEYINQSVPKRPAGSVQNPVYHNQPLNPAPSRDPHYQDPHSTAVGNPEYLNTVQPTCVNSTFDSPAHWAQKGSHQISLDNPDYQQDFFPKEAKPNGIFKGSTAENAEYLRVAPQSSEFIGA
Sequence of EGFR L858R/T790M/C797S (P00533 25-1210 T790M/C797S/L858R): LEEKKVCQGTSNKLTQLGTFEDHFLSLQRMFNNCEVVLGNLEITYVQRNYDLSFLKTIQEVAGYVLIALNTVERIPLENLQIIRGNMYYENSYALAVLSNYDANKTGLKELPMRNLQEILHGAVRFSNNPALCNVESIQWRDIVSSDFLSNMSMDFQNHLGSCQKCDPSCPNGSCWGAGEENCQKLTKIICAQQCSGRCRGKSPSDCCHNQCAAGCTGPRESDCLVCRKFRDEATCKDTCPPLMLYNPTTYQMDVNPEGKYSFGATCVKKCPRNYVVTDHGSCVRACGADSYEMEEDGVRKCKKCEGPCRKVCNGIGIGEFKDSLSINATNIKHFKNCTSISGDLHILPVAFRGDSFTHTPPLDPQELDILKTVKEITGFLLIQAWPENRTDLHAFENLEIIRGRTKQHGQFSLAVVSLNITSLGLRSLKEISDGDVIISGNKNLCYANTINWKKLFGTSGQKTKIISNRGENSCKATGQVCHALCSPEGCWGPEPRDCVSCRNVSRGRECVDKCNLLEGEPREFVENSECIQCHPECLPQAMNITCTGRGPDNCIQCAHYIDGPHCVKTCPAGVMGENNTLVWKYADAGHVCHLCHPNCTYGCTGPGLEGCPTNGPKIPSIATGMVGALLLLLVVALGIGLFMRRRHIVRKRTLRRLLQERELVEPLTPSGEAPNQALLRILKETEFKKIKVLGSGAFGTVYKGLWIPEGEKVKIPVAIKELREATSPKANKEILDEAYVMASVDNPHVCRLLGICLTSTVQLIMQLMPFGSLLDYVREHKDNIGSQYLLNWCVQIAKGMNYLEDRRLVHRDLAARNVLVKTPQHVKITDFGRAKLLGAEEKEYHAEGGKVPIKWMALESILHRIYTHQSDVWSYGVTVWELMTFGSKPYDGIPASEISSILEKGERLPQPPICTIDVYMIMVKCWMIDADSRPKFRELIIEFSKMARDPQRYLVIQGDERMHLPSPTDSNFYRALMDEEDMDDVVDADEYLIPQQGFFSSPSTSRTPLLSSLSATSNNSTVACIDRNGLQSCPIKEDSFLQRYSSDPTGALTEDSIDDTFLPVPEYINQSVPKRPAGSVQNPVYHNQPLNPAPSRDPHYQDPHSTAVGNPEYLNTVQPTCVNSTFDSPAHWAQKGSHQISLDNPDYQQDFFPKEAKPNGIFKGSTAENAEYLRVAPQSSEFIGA

Row | SMILES | IC50 [1] [µM] | IC50 [2] [µM] | IC50 [3] [µM] | EGFR protein remaining, EGFR L858R/T790M/C797S triple mutant [4] | IC50 [5] [µM] | IC50 [6] [µM] | EGFR protein remaining, EGFR-wt [7]
1 | COC1CCN(c2nccc(Nc3cc4c(cn3)nc(COCCN3CCN(c5ccc(OCCCN6CCN(c7ccc8c(c7)C(=O)N(C7CCC(=O)NC7=O)C8=O)CC6)cc5)CC3)n4C(C)C)n2)CC1 (stereo not shown) [Example 301, 2-(2,6-dioxopiperidin-3-yl)-5-(4-(3-(4-(4-(2-((1-isopropyl-6-((2-(4-methoxypiperidin-1-yl)pyrimidin-4-yl)amino)-1H-imidazo[4,5-c]pyridin-2-yl)methoxy)ethyl)piperazin-1-yl)phenoxy)propyl)piperazin-1-yl)isoindoline-1,3-dione] | 0.24 | 0.034 | 2.8 | C (>80% EGFR protein remaining after 72 hours of incubation with the test compound at a concentration of 300 nM) | 1.6 | 0.27 | 
2 | Cc1ncsc1-c1ccc([C@H](C)NC(=O)[C@@H]2C[C@@H](O)CN2C(=O)[C@@H](NC(=O)COCCN2CCN(CCOCCOCCOCC#Cc3cccc4c3C(=O)N(C(C(=O)Nc3nccs3)c3cc(F)ccc3O)C4)CC2)C(C)(C)C)cc1 (stereo partly shown) [compound 311] | 0.065 | 0.016 | 0.097 | B (≤80% and >50% EGFR protein remaining after 72 hours of incubation with the test compound at a concentration between 300 nM and 10 nM) | 9 | 4.6 | 
3 | CC(C)n1nc(N2CC(CN3CCN(CC4CCN(c5ccc6c(c5)C(=O)N(C5CCC(=O)NC5=O)C6=O)CC4)CC3)C2)c2cnc(Nc3ccnc(-c4cnn(S(=O)(=O)C5CC5)c4)n3)cc21 (stereo not shown) [compound 313] | 0.00029 | 0.00026 | 0.0014 | A (≤50% EGFR protein remaining after 72 hours of incubation with the test compound at a concentration between 300 nM and 10 nM) | 0.0075 | 0.0016 | C (>80% EGFR protein remaining after 72 hours of incubation with the test compound at a concentration of 300 nM)
4 | Cc1ncsc1-c1ccc([C@H](C)NC(=O)[C@@H]2C[C@@H](O)CN2C(=O)[C@@H](NC(=O)COCCOCCCNCC2CN(c3nn(C(C)C)c4cc(Nc5ccnc(-c6cnn(S(=O)(=O)C7CC7)c6)n5)ncc34)C2)C(C)(C)C)cc1 [compound 308] | 0.00091 | 0.00027 | 0.12 | B (≤80% and >50% EGFR protein remaining after 72 hours of incubation with the test compound at a concentration between 300 nM and 10 nM) | 0.053 | 0.0021 | 
5 | Cc1ncsc1-c1ccc([C@H](C)NC(=O)[C@@H]2C[C@@H](O)CN2C(=O)[C@@H](NC(=O)COCCOCCOCCN2CCN(CCOCC#Cc3cccc4c3C(=O)N(C(C(=O)Nc3nccs3)c3cc(F)ccc3O)C4)CC2)C(C)(C)C)cc1 (stereo partly shown) [compound 310] | 0.11 | 0.022 | 0.14 | B (≤80% and >50% EGFR protein remaining after 72 hours of incubation with the test compound at a concentration between 300 nM and 10 nM) | 6 | 8.4 | 
6 | CC(C)n1nc(N2CC(CN3CCN(CC4CCN(c5ccc6c(c5)C(=O)N(C5CCC(=O)NC5=O)C6=O)CC4)CC3)C2)c2cnc(Nc3ccnc(-c4cnn(S(=O)(=O)C5CC5)c4)n3)cc21 (stereo not shown) [compound 314] | 0.098 | 0.02 | 0.089 | C (>80% EGFR protein remaining after 72 hours of incubation with the test compound at a concentration of 300 nM) | 10 | 5.2 | 
7 | CC(C)n1nc(N2CCN(CC3CCN(c4ccc5c(c4)C(=O)N(C4CCC(=O)NC4=O)C5=O)CC3)CC2)c2cnc(Nc3ccnc(-c4cnn(S(=O)(=O)C5CC5)c4)n3)cc21 (stereo not shown) [compound 312] | 0.00067 | 0.00035 | 0.095 | B (≤80% and >50% EGFR protein remaining after 72 hours of incubation with the test compound at a concentration between 300 nM and 10 nM) | 0.17 | 0.0049 | 

Reference: patent US10994015B2, “EGFR proteolysis targeting chimeric molecules and associated methods of use” (Arvinas Operations, Inc., priority 2016, dated 2021)
